{"source": "ChEMBL document CHEMBL4190203", "about": "“Effects of Cinnamoyloxy-mammeisin from Geopropolis on Osteoclast Differentiation and Porphyromonas gingivalis-Induced Periodontitis” (J Nat Prod, 2017)", "key": {"[1]": {"molecular_target": "Matrix metalloproteinase-9 (Mus musculus) (UniProt P41245)", "sequence (P41245 whole entry)": "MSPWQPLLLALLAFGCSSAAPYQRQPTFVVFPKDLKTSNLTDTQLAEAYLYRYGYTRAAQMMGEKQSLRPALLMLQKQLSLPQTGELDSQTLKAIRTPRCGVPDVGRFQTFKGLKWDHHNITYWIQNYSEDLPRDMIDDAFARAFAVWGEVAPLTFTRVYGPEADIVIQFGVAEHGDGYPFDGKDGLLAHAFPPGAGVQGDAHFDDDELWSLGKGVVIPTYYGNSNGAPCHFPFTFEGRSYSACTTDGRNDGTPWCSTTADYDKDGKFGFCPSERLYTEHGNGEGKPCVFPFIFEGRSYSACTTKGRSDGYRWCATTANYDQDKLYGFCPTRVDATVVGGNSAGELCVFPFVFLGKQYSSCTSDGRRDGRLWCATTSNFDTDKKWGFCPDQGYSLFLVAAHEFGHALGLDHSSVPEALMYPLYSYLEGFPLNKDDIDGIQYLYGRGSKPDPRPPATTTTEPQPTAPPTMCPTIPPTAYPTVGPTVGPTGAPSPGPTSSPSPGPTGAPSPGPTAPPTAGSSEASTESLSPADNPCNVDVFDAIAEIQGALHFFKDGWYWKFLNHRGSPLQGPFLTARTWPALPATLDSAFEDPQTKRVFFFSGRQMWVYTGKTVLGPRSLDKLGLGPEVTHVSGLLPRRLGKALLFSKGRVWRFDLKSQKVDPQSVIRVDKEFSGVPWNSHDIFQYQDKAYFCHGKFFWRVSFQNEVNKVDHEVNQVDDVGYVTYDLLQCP", "test": "Inhibition of MMP9 activity in C57BL/6 mouse BMMC at 5 to 20 uM by coomassie blue staining-based gelatin zymography assay", "type": "cell-based"}, "[2]": {"system": "BMMC", "test": "Reduction in M-CSF/RANKL-induced Ctsk mRNA levels in C57BL/6 mouse BMMC at 20 uM after 3 days by RT-qPCR analysis", "type": "functional, cell-based"}, "[3]": {"system": "BMMC", "test": "Downregulation of M-CSF/RANKL-induced NFATc1 protein expression levels in C57BL/6 mouse BMMC after 3 days by Western blot analysis", "type": "functional, cell-based"}, "[4]": {"system": "BMMC", "test": "Reduction in M-CSF/RANKL-induced NFATc1 mRNA levels in C57BL/6 mouse BMMC at 20 uM after 3 days by RT-qPCR analysis", "type": "functional, cell-based"}, "[5]": {"system": "Mus musculus", "test": "Antiperiodontitic activity in BALB/c mouse model of Porphyromonas gingivalis-induced periodontitis assessed as reduction in maxillary tissue CtsK mRNA levels at 100 ug/kg, id dosed once in 2 days for 30 days", "type": "functional, organism-based"}, "[6]": {"system": "BMMC", "test": "Inhibition of M-CSF/RANKL-induced osteoclast differentiation in C57BL/6 mouse BMMC assessed as decrease in multinucleated TRAP+ cells at 20 uM after 3 days by TRAP staining-based assay", "type": "functional, cell-based"}, "[7]": {"system": "BMMC", "test": "Cytotoxicity against C57BL/6 mouse BMMC at 5 to 20 uM after 3 days in presence of M-CSF/RANKL by MTT assay", "type": "cell-based", "details": "72 h"}, "[8]": {"system": "Mus musculus", "test": "Antiperiodontitic activity in BALB/c mouse model of Porphyromonas gingivalis-induced periodontitis assessed as reduction in maxillary tissue Mmp9 mRNA levels at 100 ug/kg, id dosed once in 2 days for 30 days", "type": "functional, organism-based"}, "[9]": {"system": "BMMC", "test": "Reduction in M-CSF/RANKL-induced Itgb3 mRNA levels in C57BL/6 mouse BMMC at 20 uM after 3 days by RT-qPCR analysis", "type": "functional, cell-based"}, "[10]": {"system": "BMMC", "test": "Downregulation of M-CSF/RANKL-induced CTSK protein expression levels in C57BL/6 mouse BMMC at 20 uM after 3 days by Western blot analysis", "type": "functional, cell-based"}, "[11]": {"system": "BMMC", "test": "Downregulation of M-CSF/RANKL-induced integrin alphaV protein expression levels in C57BL/6 mouse BMMC at 20 uM after 3 days by Western blot analysis", "type": "functional, cell-based"}, "[12]": {"system": "Mus musculus", "test": "Antiperiodontitic activity in BALB/c mouse model of Porphyromonas gingivalis-induced periodontitis assessed as reduction in alveolar bone resorption at 100 ug/kg, id dosed once in 2 days for 30 days", "type": "functional, organism-based"}, "[13]": {"system": "BMMC", "test": "Reduction in M-CSF/RANKL-induced Trap/Acp5 mRNA levels in C57BL/6 mouse BMMC at 20 uM after 3 days by RT-qPCR analysis", "type": "functional, cell-based"}, "[14]": {"system": "Mus musculus", "test": "Antiperiodontitic activity in BALB/c mouse model of Porphyromonas gingivalis-induced periodontitis assessed as reduction in maxillary tissue Trap/Acp5 mRNA levels at 100 ug/kg, id dosed once in 2 days for 30 days", "type": "functional, organism-based"}, "[15]": {"system": "BMMC", "test": "Reduction in M-CSF/RANKL-induced MMP-9 mRNA levels in C57BL/6 mouse BMMC at 20 uM after 3 days by RT-qPCR analysis", "type": "functional, cell-based"}, "[16]": {"system": "BMMC", "test": "Inhibition of M-CSF/RANKL-induced matrix resorption capacity in C57BL/6 mouse BMMC at 10 to 20 uM after 4 days in hydroxyapatite-coated plates", "type": "functional, cell-based"}, "[17]": {"system": "BMMC", "test": "Inhibition of M-CSF/RANKL-induced osteoclast differentiation in C57BL/6 mouse BMMC assessed as decrease in multinucleated TRAP+ cells after 3 days by TRAP staining-based assay", "type": "functional, cell-based"}, "[18]": {"system": "BMMC", "test": "Reduction in M-CSF/RANKL-induced V-ATPase mRNA levels in C57BL/6 mouse BMMC at 20 uM after 3 days by RT-qPCR analysis", "type": "functional, cell-based"}}, "note": "The source made the active and inactive calls. The rule behind the calls is not given here."}
{"smiles": "CC(C)=CCc1c(O)c(C(=O)CC(C)COC(=O)/C=C/c2ccccc2)c(O)c2c(-c3ccccc3)cc(=O)oc12", "note": "(stereo not drawn)", "values": [{"measurement": "inhibition", "setting": "[1]", "result": "Active"}, {"measurement": "Activity", "setting": "[2]", "result": "Active"}, {"measurement": "Activity", "setting": "[3]", "result": "Dose-dependent effect"}, {"measurement": "Activity", "setting": "[4]", "result": "Active"}, {"measurement": "Activity", "setting": "[5]", "result": "Active"}, {"measurement": "inhibition", "setting": "[6]", "result": "Active"}, {"measurement": "Activity", "setting": "[7]", "result": "Non-Toxic"}, {"measurement": "Activity", "setting": "[8]", "result": "inactive"}, {"measurement": "Activity", "setting": "[9]", "result": "Active"}, {"measurement": "Activity", "setting": "[10]", "result": "Active"}, {"measurement": "Activity", "setting": "[11]", "result": "Active"}, {"measurement": "Activity", "setting": "[12]", "result": "Active"}, {"measurement": "Activity", "setting": "[13]", "result": "Active"}, {"measurement": "Activity", "setting": "[14]", "result": "Active"}, {"measurement": "Activity", "setting": "[15]", "result": "Active"}, {"measurement": "inhibition", "setting": "[16]", "result": "Active"}, {"measurement": "inhibition", "setting": "[17]", "result": "Dose-dependent effect"}, {"measurement": "Activity", "setting": "[18]", "result": "Active"}]}
